{
  "source": "patent US20050238580A1",
  "about": "(priority 2002, published 2005)",
  "key": {"intestinal lactase [1]": {"biological_target": "T1, intestinal lactase (Rattus norvegicus, UniProt Q02401)", "T1 construct": "hydrolysis of the 4-galactosyl-xylose administered is detected by the action of intestinal lactase; from tissue; host or cells: small-intestinal mucous membrane of living unweaned rats (in vivo); activity also measured post mortem in mucosa homogenate", "T1 sequence (Q02401 868-1928)": "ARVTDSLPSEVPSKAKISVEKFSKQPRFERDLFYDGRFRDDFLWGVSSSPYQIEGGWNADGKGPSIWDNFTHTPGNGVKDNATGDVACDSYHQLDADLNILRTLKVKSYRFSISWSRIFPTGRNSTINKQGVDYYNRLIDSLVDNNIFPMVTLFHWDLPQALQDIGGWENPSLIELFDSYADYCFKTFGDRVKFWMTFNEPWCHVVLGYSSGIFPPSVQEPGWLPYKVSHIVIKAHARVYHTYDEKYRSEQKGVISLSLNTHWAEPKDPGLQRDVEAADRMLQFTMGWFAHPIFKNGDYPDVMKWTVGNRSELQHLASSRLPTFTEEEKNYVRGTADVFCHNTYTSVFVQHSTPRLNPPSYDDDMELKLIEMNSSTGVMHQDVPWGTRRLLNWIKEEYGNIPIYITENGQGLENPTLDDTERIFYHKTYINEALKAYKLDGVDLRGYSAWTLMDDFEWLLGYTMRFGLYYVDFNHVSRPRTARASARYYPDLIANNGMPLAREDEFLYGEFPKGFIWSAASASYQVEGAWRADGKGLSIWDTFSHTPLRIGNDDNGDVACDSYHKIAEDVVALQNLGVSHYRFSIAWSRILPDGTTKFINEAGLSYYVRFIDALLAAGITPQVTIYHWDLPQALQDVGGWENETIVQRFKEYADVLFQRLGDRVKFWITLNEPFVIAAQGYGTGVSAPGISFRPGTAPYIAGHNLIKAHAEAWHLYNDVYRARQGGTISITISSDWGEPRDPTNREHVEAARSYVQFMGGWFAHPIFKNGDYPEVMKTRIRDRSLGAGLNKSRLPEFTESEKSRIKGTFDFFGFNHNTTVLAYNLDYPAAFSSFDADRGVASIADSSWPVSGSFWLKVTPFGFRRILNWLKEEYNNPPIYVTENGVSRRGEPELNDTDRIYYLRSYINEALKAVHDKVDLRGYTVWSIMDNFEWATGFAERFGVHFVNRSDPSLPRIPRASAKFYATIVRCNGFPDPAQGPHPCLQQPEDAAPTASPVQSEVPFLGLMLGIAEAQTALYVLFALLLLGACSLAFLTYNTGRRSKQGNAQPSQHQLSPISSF", "experiment": "Xylose in blood plasma after oral 4-galactosyl-xylose versus intestinal lactase activity in unweaned rats", "format": "in vivo", "text": "Correlation between the excretion of xylose in urine and the presence of xylose in blood after oral administration of 4-galactosyl-xylose with intestinal lactase activity. This has been shown in unweaned rats by comparing during the growth of these animals the amount of xylose in plasma analyzed after orally administering to them 4-galactosyl-xylose with specific lactase activity evaluated postmortem in the intestinal mucous membrane. For this purpose, a group comprised of 60 12-day old unweaned rats belonging to two litters fasted for 6 hours by being separated from the mother. After this period of time passed, basal blood was extracted from each animal by means of a heart puncture and each rat was immediately administered 8 mg of 4-galactosyl-xylose diluted in 0.3 ml of distilled water by using an intraesophageal probe. 3 hours after the disaccharide was administered another blood sample was extracted. The blood plasma or supernatant fraction was obtained by centrifuging this sample and the xylose therein was titrated by calorimetric analysis with fluoroglucinol and using the plasma of the basal blood as the target. Immediately after the blood was extracted, four of the animals were sacrificed and the lactase activity in the intestinal mucous membrane was directly evaluated in the same manner as the one described in Example 1. […]"}, "intestinal lactase [2]": {"biological_target": "T2, intestinal lactase (Homo sapiens, UniProt P09848)", "T2 construct": "from tissue; host or cells: small-intestinal mucous membrane of living adult human volunteers (in vivo)", "T2 sequence (P09848 869-1927)": "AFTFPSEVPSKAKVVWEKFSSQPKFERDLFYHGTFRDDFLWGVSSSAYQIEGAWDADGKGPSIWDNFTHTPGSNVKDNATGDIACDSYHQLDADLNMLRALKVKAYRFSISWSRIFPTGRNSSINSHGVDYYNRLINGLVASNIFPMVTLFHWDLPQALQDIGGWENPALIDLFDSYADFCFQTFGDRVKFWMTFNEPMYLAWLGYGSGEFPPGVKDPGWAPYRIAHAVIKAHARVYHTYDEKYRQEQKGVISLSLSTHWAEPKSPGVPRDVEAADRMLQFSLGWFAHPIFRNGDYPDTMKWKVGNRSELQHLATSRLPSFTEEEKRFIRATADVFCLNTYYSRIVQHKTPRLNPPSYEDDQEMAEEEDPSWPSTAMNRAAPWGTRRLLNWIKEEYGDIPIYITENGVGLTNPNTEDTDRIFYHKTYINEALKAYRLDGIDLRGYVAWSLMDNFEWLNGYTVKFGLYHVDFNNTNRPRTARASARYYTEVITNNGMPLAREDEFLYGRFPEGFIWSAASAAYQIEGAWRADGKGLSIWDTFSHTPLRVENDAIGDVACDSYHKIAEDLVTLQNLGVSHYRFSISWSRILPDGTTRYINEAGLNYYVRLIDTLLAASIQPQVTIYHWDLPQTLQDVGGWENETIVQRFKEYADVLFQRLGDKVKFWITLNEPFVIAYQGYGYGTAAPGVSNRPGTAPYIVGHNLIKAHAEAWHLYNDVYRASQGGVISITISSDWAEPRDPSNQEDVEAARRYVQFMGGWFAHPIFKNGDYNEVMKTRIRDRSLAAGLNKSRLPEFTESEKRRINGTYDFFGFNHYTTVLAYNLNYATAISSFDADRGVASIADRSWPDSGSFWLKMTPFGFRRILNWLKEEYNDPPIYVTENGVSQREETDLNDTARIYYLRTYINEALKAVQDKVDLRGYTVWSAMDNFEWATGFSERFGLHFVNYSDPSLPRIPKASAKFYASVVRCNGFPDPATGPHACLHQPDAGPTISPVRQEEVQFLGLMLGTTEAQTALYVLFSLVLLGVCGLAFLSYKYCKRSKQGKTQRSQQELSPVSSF", "experiment": "Xylose in urine of human volunteers after oral 4-galactosyl-xylose, evaluated by gas chromatography", "format": "in vivo", "details": "0.25 g oral", "text": "Excretion of xylose in urine after administration of 0.25 g of 4-galactose-xylose to subjects with lactose tolerance, and its reduction in hypolactasic individuals with lactose intolerance is likewise observed by the evaluation technique of xylose different from the colorimetric reaction with fluoroglucinol. This has been shown by administering 0.25 g of 4-galactosyl-xylose to a volunteer with lactose tolerance [individual 1 (also studied in Example 3), Example 15] on one hand, and on the other hand, to a volunteer with lactose intolerance having an intense intestinal lactase deficiency [individual 12 (also studied in Example 12), Example 16], and evaluating xylose by gas chromatography in the total urine collected 3 hours after the intake of the disaccharide with a chromatograph equipped with a flame ionization detector and a 12 m long glass spiral column with an inside diameter of 0.2 mm and a thickness of 0.3 μm. The presence of xylose in urine was detected in its trimethylsilyl derivative form. For this purpose the urine sample was lyophilized and dissolved in 20 μl of pyridine containing 1 mM of benzyl-β-D-xylopyranoside as an internal reference. Then another 20 μl of N-trimethylsilyl imidazole were added as a sililating agent. The mixture was treated with ultrasound for one minute and heated at 60° C. for 30 minutes. Then 1-2 μl of the sample was injected into the gas chromatograph. The temperature of the injector and the detector used was 250° C. and the temperature gradient in the column was the following: 2 minutes at 180° C. and a 5° C. increase per minute until 250° C. was reached. This temperature was maintained for 15 minutes. The concentration of xylose in each sample was calculated from the areas of the peaks corresponding to the chromatograms. The results of these experiments are compiled in FIG. 7, wherein the chromatograms corresponding to the samples of basal urine and of urine taken during 3 hours from an individual with lactose tolerance and an individual with lactose intolerance are shown. […]"}},
  "data": [
    {"compound": "OCC1O[C@@H](O[C@@H]2COC(O)C(O)[C@H]2O)C(O)[C@@H](O)[C@H]1O", "note": "(some centres unmarked)", "values": [
      {"measurement": "linear correlation coefficient (r) between xylose in blood plasma and intestinal lactase activity", "setting": "intestinal lactase [1]; unweaned rats aged 12 to 35 days, 8 mg oral, plasma 3 hours after administration", "result": 0.98},
      {"measurement": "dose dependence of amount of xylose in plasma", "setting": "intestinal lactase [1]; unweaned rats, oral doses between 4 and 16 mg in 0.3 ml of water", "result": "increases with the increase of the amount of 4-galactosyl-xylose"},
      {"measurement": "reduction of xylose in urine, individual 12 versus individual 1", "setting": "intestinal lactase [2]; urine of 3 hours", "result": 92, "unit": "%"},
      {"measurement": "total amount of xylose in urine of 3 hours", "setting": "intestinal lactase [2]; hypolactasic individual 12 with lactose intolerance", "result": 2.1, "unit": "mg"},
      {"measurement": "total xylose in urine of 3 hours", "setting": "intestinal lactase [2]; individual 1 with lactose tolerance", "result": 25.2, "unit": "mg"}
    ]}
  ]
}
